The target of this assay is T1, mEAG1 (Mus musculus, UniProt Q60603).
T1 construct: gene Kcnh1; PAS domain, residues 7–136 (N-terminal 6-His)
T1 sequence (Q60603 7-136): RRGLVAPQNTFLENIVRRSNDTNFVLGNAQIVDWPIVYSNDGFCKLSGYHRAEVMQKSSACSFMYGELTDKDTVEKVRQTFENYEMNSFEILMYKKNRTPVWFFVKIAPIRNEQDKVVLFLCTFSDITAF
The assay can be described thus: SPR steady-state dose response (Biacore […]); also inhibits full-length mEAG1 currents in inside-out patches, IC50 […]. The class given is binding. (SPR reads the build-up and loss of mass on a sensor chip optically.)

Experimental findings from publication PMC6637479, “Identification of undecylenic acid as EAG channel inhibitor using surface plasmon resonance-based screen of KCNH channels” (BMC Pharmacology & Toxicology, 2019) are described below.

In the case of `C=CCCCCCCCCC(=O)O` [undecylenic acid], the Kd (in general, the free concentration of one partner at which half of the binding sites on the other are occupied at equilibrium, for simple one-to-one binding) was about 11 µM.
